Test results taken from patent EP4311550A1, “CHLOROPHYLLIDE DERIVATIVES FOR USE IN THE PREVENTION OR TREATMENT OF BACTERIAL INFECTION” (Université de Liège, priority 2022, dated 2024).
Values joined by “and” are separate entries in the source; they are usually repeats but may differ in a detail not shown here. Equal entries are not always repeated.

What was measured:
Assay type in all cases: cell-based
[1] = tested on: Staphylococcus aureus (ATCC 25923); assay: disk diffusion assay (growth inhibition halo); conditions: for inhibition diameter (in brackets), in presence of light: Petri dishes incubated in presence of light; for inhibition diameter (in brackets), in the dark: incubation in the dark; for activity of inhibition of S. aureus growth: preparative HPLC fractions redissolved in MeOH/H2O 75%, disk diffusion assay, Figure 3
Experimental: The antimicrobial activity of these extracts was tested against Gram-positive and Gram-negative bacteria, yeasts and fungi by the diffusion disk method. The bacteria tested were Staphylococcus aureus (ATCC 25923), Enterococcus faecium (ATCC 19434), Escherichia coli (ATCC 25922), Pseudomonas aeruginosa (ATCC 27853), Klebsiella pneumoniae (ATCC 13883), methicillin resistant S. aureus (MRSA, ATCC43300) and Bacillus subtilis 168. The yeasts tested were Candida albicans (MUCL 29800), Saccharomyces cerevisiae (MUCL 31497) and the fungus Aspergillus niger (IHEM 3415). Mueller-Hinton II culture medium was used for cultivating S.aureus, E. coli, P. aeruginosa and K. pneumoniae; Brain Heart infusion Broth for E. faecium; Yeast Peptone Dextrose Broth for C. albicans and A. niger and S. cerevisiae. Agar plates with the appropriate medium were inoculated from the glycerol stock culture and Petri dishes were incubated overnight at 37°C for bacteria and at 28°C during 48 hours for the other strains. Colonies or spores (forA. niger) were then resuspended in a sterile solution of NaCl 0.85% to obtain a OD600 between 0.08 and 0.1 at 600 nm (which corresponds to tube of 0.5 on McFarland scale). Sterile cotton buds were soaked with the suspension and the micro-organisms were spread onto the Petri dish. Five sterile disks of chromatography paper (Whatman 3MM) with a diameter of 6,0 mm were placed on the agar plate. Two disks were respectively used for positive (1 mg/ml kanamycin for S. aureus, B. subtilis, E. coli and K. pneumoniae; 25 mg/ml kanamycin for E. faecium; 0,01 mg/ml ciprofloxacin for P. aeruginosa; 20 and 0,01 mg/ml cycloheximide for A. niger and S. cerevisiae, respectively; 0,1 mg/ml nystatin for C. albicans) and negative (MeOH/H2O 75/25%) controls. The remaining disks were used to test the compound of interest in triplicate. On each disk, 10 µl were loaded on the paper disk in two steps (2 x 5 µl) letting the paper dry between the two loadings. The Petri dishes were then incubated as described above. The antimicrobial activity of compounds of interest was visualized by its growth inhibition halo. […] Table 1: Inhibition diameter of the crude methanol 75% extract of spray-dried powder of Scenedemus sp. S4 and freeze-dried powders of D. armatus S0
The injection volume was fixed at 100 µL, the sample temperature in the autosampler was 10°C and the column was thermostatized at 37°C. The effluent was monitored by a photodiode array detector (Waters 2998 PDA detector, detection range: 200-800 nm) and collected using an automatic fraction collector (Waters Fraction Collector III, volume fraction: 500 µl). The collected fractions were then dried by using a vacuum centrifuge (Speedvac vacuum concentrator Savant SPD-111V, Thermo Scientific) and redissolved in 500 µL of MeOH/H2O 75% (75/25 v/v) and assayed for their capacity to inhibit the growth of S. aureus (disk assay as described above). Several fractions were selected for their antibacterial activity and preparative purifications were then carried out to obtain higher quantities of these compounds to allow their identification and subsequently their characterization.
Preparative chromatography was carried out by using an AKTA explorer system (GE Healthcare) and a preparative reverse phase column (Nucleodur C18 Gravity, 5 µm particule size, length x internal diameter: 25 cm x 1 cm) The chromatogram was recorded at 3 different wavelengths: 230 nm, 430 nm and 650 nm. The volume injected was 2 ml and the flow rate fixed at 2 ml/min. The same buffers as those used during analytical separation were selected and the gradient adapted to the column volume. Fraction size was adapted in such a way that one peak corresponded to one collected fraction. These fractions were then dried with a vacuum centrifuge and redissolved in 500 µL of MeOH/H2O 75%. Figure 3 presents the chromatogram obtained at 430 nm. […]

S. aureus [2] = assay: viable count (CFU per ml) after addition of compound; conditions: 1 or 4 x MIC, in the dark
Experimental: To distinguish between these two antibacterial activities, the number of viable S. aureus were determined by counting the colonies forming units (CFU) per ml of culture before the addition of the chlorophyllide derivative (t=0 h) and after 2 and 4 hours. […] The negative control is represented in black, while cultures treated with 1x and 4xMIC of purified S fraction are hatched and dotted respectively. The data presented are the average values of three independent experiments.
For culture without addition of chlorophyllide derivative (negative control, only addition of MeOH/H2O 75%) S. aureus maintained its growth and CFU/ml increased. On the contrary, once 13^2-hydroxy-methylchlorophyllide a was added (1 or 4 x MIC value in MeOH/H2O 75%, final concentration), the number of CFU/ml decreased of at least four logarithmic steps (4 log10). This means that the chlorophyllide derivative killed, in the dark, more than 99.99% of the bacterial population. The same result was observed after 2 and 4 hours even if for this latter culture a slight return of bacterial growth was observed.

red blood cell = assay: sheep erythrocyte lysis assay; conditions: after 120 min, at 4 x MIC, 37°C
Experimental: Activity of 13^2-hydroxy-methylchlorophyllide a on red blood cell was determined using a sheep erythocyte lysis assay. The lytic action was assessed on defibrinated sheep blood (bioTRADING). The erythrocytes were harvested by centrifugation (1500 rpm, 5 min) and washed 10 times with phosphate buffer saline (PBS). The red blood cells were then diluted 25 times with PBS and washed two more times to obtain a colourless supernatant after a centrifugation at 3000 g for 5 minutes. Samples of 1 ml of red blood cells (25 times diluted) are transferred in Eppendorf tubes and the 13^2-hydroxy-methylchlorophyllide a, dissolved in MeOH/H2O 75% (v/v), was added to obtain a final concentration equal to 1x or 4x MIC. The tubes are then incubated at 37°C at 300 rpm by using a thermomixer HC (Starlab) and 100 µl samples were withdrawn at time 0, 5, 10, 15, 30, 60 and 120 min. […]
The erythrocyte lysis was highlighted by the presence of haemoglobin in the supernatant and quantified by measuring the absorbance of the supernatant at 540 nm by means of a microplate reader Tecan infinite200 pro. The percentage lysis was calculated as follows: % lysis = (AChl^540 −APBS^540)/(ASDS 0.1%^540) × 100 [formula] wherein AChl is the absorbance of the tested compound, APBS is the measured absorbance of the PBS solution and ASDS is the absorbance of the SDS solution (positive control), each at the wavelength of 540 nm. […]

S. aureus [3] = assay: growth curve (OD600) of an early exponential culture after addition of compound; conditions: 1x and 4x the MIC, directly after addition, in the dark
Experimental: To further characterize the antibacterial action of 13^2-hydroxy-methylchlorophyllide a, a S. aureus culture in its early exponential phase of growth was submitted to the action of the chlorophyllide derivative. 100 ml of Mueller-Hinton broth were inoculated with an overnight culture of S. aureus to obtain a bacterial density corresponding to an optical density at 600 nm (OD^600) = 0.05. This culture was then incubated at 37°C under orbital shaking (240 rpm) by using an Aquatron (Infors) shaker. Once the cells enter early exponential growth (OD^600= 0.2), the culture was subdivided into three 20 ml cultures. For two cultures, 13^2-hydroxy-methylchlorophyllide a solubilized in MeOH/H2O 75% was added to reach a final concentration equal to 1x and 4x the MIC, respectively. For the third culture (control culture), a corresponding volume of MeOH/H2O without any chlorophyllide compound was added. In Figure 7 the optical density as a function of time is presented. The addition of the compounds occurred after 75 minutes. […] OD^600 remained unchanged during the whole experiment. This observation supports the hypothesis that no bacterial cell lysis takes place and that the antibacterial activity of 13^2-derivative is either bacteriostatic or non-lytic bactericidal.

S. aureus (ATCC25923) = assay: minimum inhibitory concentration by microdilution method; conditions: 37°C, in the dark, 24 hours, Mueller-Hinton broth; 1:40 dilution factor of 58.03 µg/ml stock
Experimental: The minimum inhibitory concentration (MIC) of 13^2-hydroxy-methylchlorophyllide a for S. aureus was determined using the microdilution method. In a 48-well plate, 500 µl of Mueller-Hinton broth were placed in each well. Then, 500 µl of a dilute solution of 13^2-hydroxy-methylchlorophyllide a (stock solution in MeOH/H2O 75% diluted 5x by Mueller-Hinton broth) were added to the first well and serial 2-fold dilutions were made by transferring 500 µL from one well to the next. For the last well, 500 µl were discarded. A culture of S. aureus (ATCC25923) growing in exponential phase was diluted with sterile NaCl 0.85% (w/v) to obtain a bacterial suspension corresponding to 0.5 tube McFarland unit and then dispensed in 500 µl aliquots in the 48 well plate. After covering the 48-plate with its lid, it was incubated at 37°C under agitation and in the dark for 24 hours. The MIC was defined as the last dilution for which no visible bacterial growth was observed. The concentration of the active compound was determined on the basis of a calibration line obtained by injecting increasing volumes of a solution of pure chlorophyllide a standard on a reverse-phase HPLC column.

Row | Compound | inhibition diameter (in brackets), in presence of light ([1]; disk diameter 6,0 mm) | inhibition diameter (in brackets), in the dark ([1]; disk diameter 6,0 mm) | activity of inhibition of S. aureus growth [1] | further results
1 | 13^2-hydroxy-chlorophyllide a [listing 1 of 2 here] | 0.86 cm | 0.69 cm |  | 
2 | 13^2-hydroxy-chlorophyllide a [listing 2 of 2 here] |  |  | active | 
3 | 13^2-hydroxy-chlorophyllide b [listing 1 of 2 here] | 0.70 cm | 0.72 cm |  | 
4 | 13^2-hydroxy-chlorophyllide b [listing 2 of 2 here] |  |  | active | 
5 | 13^2-hydroxy-methylchlorophyllide a [listing 1 of 2 here] | 1.12 cm | 0.80 cm |  | decrease of the number of CFU/ml (S. aureus [2]; after 2 and 4 hours): ≥ 4 log10; bacterial population killed (S. aureus [2]): more than 99.99%; percentage of red blood cell hemolysis (red blood cell): lower than 10%; S. aureus growth (OD600) (S. aureus [3]): growth was stopped; MIC (S. aureus (ATCC25923)): 1.45 mg/L; activity of inhibition of S. aureus growth ([1]; listed as S): most active
6 | 13^2-hydroxy-methylchlorophyllide a [listing 2 of 2 here] |  |  | active | 
7 | 13^2-hydroxy-methylchlorophyllide b | 0.87 cm | 0.73 cm |  | 
8 | 13^2-hydroxy-methylchlorophyllide b [K] |  |  | active | 
9 | NC[C@H]1O[C@H](O[C@H]2[C@H](O)[C@@H](O[C@H]3O[C@H](CO)[C@@H](O)[C@H](N)[C@H]3O)[C@H](N)C[C@@H]2N)[C@H](O)[C@@H](O)[C@@H]1O [Positive control, kanamycin, reference compound] |  |  |  | Inhibition diameter, Positive control ([1]; positive control disk on the plate of the named extract (1 mg/ml kanamycin for S. aureus), 10 µl per disk, disk diameter 6,0 mm): 2.10 cm and 1.62 cm
10 | C=CC1=C(C)C2=NC1=CC1=NC(=Cc3[n-]c4c(c3C)=C([O-])C(C(=O)OC)C=4C3=NC(=C2)C(C)C3CCC(=O)OC)C(CC)=C1C.[Mg+2] (centres unmarked) [methyl chlorophyllide a, reference compound] |  | 0.60 cm |  | 
